Laboratory results: patent US4076830A, “Alkylmethanodibenzocycloheptapyrroles” (E. I. Du Pont de Nemours and Company, priority 1976, dated 1978)
Where a name gives a salt, the structure may show the parent alone. Read-outs that look alike come from different tables or passages of the source.

Columns and labels:
[1] = general tranquilizer activity in mice (exploratory loss, ptosis, catatonia, muscle tone, grip and lift reflexes, pinna twitch reflex, tremors, death); details: mouse, in vivo, po
Method: (§1) Groups of five Carworth CF1 S female mice, 16-20 g each, were fasted 16-22 hours before use. The mice were put in opaque plastic "shoe-box" cages 15-30 min. before injection, and then treated orally with 4, 12, 36, 108 and 324 mg/kg of the compound to be tested […] in 1% aqueous distilled water solution of methylcellulose (Methocel®). Each dose was given in a standard volume of 0.45 ml. Observations were made at 0.5, 2 and 24 hours after dosing. ED50 values were calculated for each parameter including death (LD50). The ED50 and LD50 values are the doses at which 50% of the animals would be expected to respond.
(§2) Exploratory Activity - The mouse is placed on a stainless steel wire mesh screen (8 inches × 12 inches, 3 mesh per inch, 174 inch mesh openings) "shoe-box" lid (1 inch high) and is observed for normal activities, such as nose movements, head movements with apparent visual examination of the area, and/or walking around on the screen. Absence of or marked depression of these activities for 5 seconds constitutes loss of exploratory activity.
(§3) Ptosis - The mouse is picked up by the tail and placed on the screen with its head facing the observer. Bilateral eyelid closure of 50% or more two seconds after placement is considered ptosis.
(§4) Catatonia - The mouse is placed with its front paws on the edge of a stainless steel "shoe-box" cover, 1 inch high, covered with adhesive tape. Failure to remove both paws from the cover's edge within 5 seconds constitutes catatonia.
(§5) Muscle Tone - The observer gently strokes the abdominal musculature of the mouse with thumb and forefinger. Flaccidity (or rarely, tenseness) is recorded.
(§6) Grip and Lift Reflexes - The mouse is gently swung by the tail toward a horizontal 12 gauge wire tautly stretched 25 cm above the bench. After the mouse grasps the wire with its forepaws, its posterior end is held directly below the wire. A normal mouse grasps the wire with its forepaws and immediately lifts its hind limbs to the wire. Failure to grasp the wire with the forepaws in both trials constitutes loss of the grip reflex; failure to lift the hind limbs to grasp the wire with at least one hind paw within 5 seconds constitutes loss of the lift reflex.
(§7) Pinna Twitch Reflex - The mouse is placed on the bar 10-20 cm horizontally and 9 cm vertically from a Galton whistle adjusted for 13 kc (5 mm on the whistle scale) and is subjected to several short bursts of sound.
(§8) The ED50 values, i.e., the dose which caused the response in 50% of the mice, are tabulated.

female white mice = experiment: as above; details: for ED50: Mus musculus, po
Method: as §1, §2, §3, §4, §5, §6, §7, §8

[2] = tested on: phenylquinone-induced writhing; experiment: analgesic activity: prevention of phenylquinone-induced writhing in mice; assay type: in vivo, mouse (Carworth CF1 S female mice); details: oral, phenylquinone 1.1 mg/kg intraperitoneally
Text: This mouse test is predictive of analgesic response in humans. [E. Siegmund, R. Cadmus and G. Lee, Proc. Soc.
ED50 values were obtained graphically from the data.

[3] = read-out: ED50 Catatonia, oral, mice, observed at 0.5, 2 and 24 hours
[4] = read-out: ED50 Exploratory Loss Visual, oral, mice, observed at 0.5, 2 and 24 hours
[5] = read-out: ED50 Muscle Tone, oral, mice, observed at 0.5, 2 and 24 hours
[6] = read-out: ED50 Ptosis, oral, mice, observed at 0.5, 2 and 24 hours
[7] = read-out: ED50 Reflexes Grip, oral, mice, observed at 0.5, 2 and 24 hours
[8] = read-out: ED50 Reflexes Lift, oral, mice, observed at 0.5, 2 and 24 hours
[9] = read-out: ED50 Reflexes Pinna, oral, mice, observed at 0.5, 2 and 24 hours
[10] = read-out: ED50 Tremors, oral, mice, observed at 0.5, 2 and 24 hours
[11] = oral, mice, observed at 0.5, 2 and 24 hours
[12] = oral, mice, observed at 0.5, 2 and 24 hours, hydrochloride

CC1[C@@H]2c3ccccc3[C@@H]3C[C@@]2(CN1CC1CCCC1)c1ccccc13 (stereo partly drawn) [Example 3g, 2-cyclopentylmethyl-1-methyl-trans-2,3,8,12b-tetrahydro-1H-3a,8-methanodibenzo[3,4:6,7]cyclohepta[1,2-c]pyrrole, hydrochloride]
LD50 at 24 h [1]: > 324 mg/kg
ED50 (female white mice; [3]): 20 mg/kg
ED50 (female white mice; [4]): 7 mg/kg
ED50 (female white mice; [5]): 20 mg/kg
ED50 (female white mice; [6]): 12 mg/kg
ED50 (female white mice; [7]): > 324 mg/kg
ED50 (female white mice; [8]): 36 mg/kg
ED50 (female white mice; [9]): 20 mg/kg
ED50 (female white mice; [10]): > 324 mg/kg
Phenylquinone Analgesia (activity in words) [2]: Active

C[C@]12C[C@@]3(CN(CC4CCCCC4)C[C@@H]3c3ccccc31)c1ccccc12 (relative stereo) [Example 1, 2-Cyclohexylmethyl-8-methyl-trans-2,3,8,12b-tetra-hydro-1H-3a,8-methanodibenzo[3,4:6,7]cyclohepta[1,2-c]-pyrrole Hydrochloride]
LD50 at 24 h [1]: > 324 mg/kg
ED50 (female white mice; [3]): 109 mg/kg
ED50 (female white mice; [4]): 87 mg/kg
ED50 (female white mice; [5]): 109 mg/kg
ED50 (female white mice; [6]): 87 mg/kg
ED50 (female white mice; [7]): > 324 mg/kg
ED50 (female white mice; [8]): 97 mg/kg
ED50 (female white mice; [9]): 109 mg/kg
ED50 (female white mice; [10]): > 324 mg/kg
ED50 ([2]; Mus musculus, dose blocking writhing in 50% of mice, read-out: ED50 Phenylquinone Analgesia): 30 mg/kg

CN1C[C@@H]2c3ccccc3[C@]3(C)C[C@@]2(C1)c1ccccc13 (relative stereo) [Example 2, 2,8-Dimethyl-trans-2,3,8,12b-tetrahydro-1H-3a,8-methanodibenzo[3,4:6,7]cyclohepta[1,2-c]pyrrole Hydrochloride]
LD50 at 24 h [1]: 300 mg/kg
ED50 (female white mice; [3]): 60 mg/kg
ED50 (female white mice; [4]): 60 mg/kg
ED50 (female white mice; [5]): 36 mg/kg
ED50 (female white mice; [6]): 60 mg/kg
ED50 (female white mice; [7]): 60 mg/kg
ED50 (female white mice; [8]): 60 mg/kg
ED50 (female white mice; [9]): 60 mg/kg
ED50 (female white mice; [10]): 60 mg/kg
Phenylquinone Analgesia (activity in words) [2]: Active

CN1C(=O)CN=C(c2ccccc2)c2cc(Cl)ccc21 [Diazepam, reference compound]
ED50 (female white mice; [3]): 59 mg/kg
ED50 (female white mice; [4]): 87 mg/kg
ED50 (female white mice; [5]): 89 mg/kg
ED50 (female white mice; [6]): 79 mg/kg
ED50 (female white mice; [7]): 78 mg/kg
ED50 (female white mice; [8]): 4.4 mg/kg
ED50 (female white mice; [9]): 63 mg/kg
ED50 (female white mice; [10]): > 324 mg/kg

CN(C)CCCN1c2ccccc2Sc2ccc(Cl)cc21 [Chlorpromazine, reference compound]
LD50 at 24 h [1]: 850 mg/kg
ED50 (female white mice; [3]): 8 mg/kg
ED50 (female white mice; [4]): 7 mg/kg
ED50 (female white mice; [5]): 8 mg/kg
ED50 (female white mice; [6]): 7 mg/kg
ED50 (female white mice; [7]): 240 mg/kg
ED50 (female white mice; [8]): 8 mg/kg
ED50 (female white mice; [9]): 5 mg/kg
ED50 (female white mice; [10]): > 324 mg/kg

CC1[C@@H]2c3ccccc3[C@@H]3C[C@@]2(CN1CC1CCCC1)c1ccccc13 (stereo partly drawn) [Example 3h, 2-cyclopentylmethyl-1-methyl-trans-2,3,8,12b-tetrahydro-1H-3a,8-methanodibenzo[3,4:6,7]-cyclohepta[1,2-c]pyrrole hydrochloride]
LD50 (female white mice; 24-hour value, oral, mice): > 324 mg/kg
ED50 Muscle Tone (female white mice; [11]): 20 mg/kg
ED50 Reflexes Grip (female white mice; [11]): > 324 mg/kg
ED50 Tremors (female white mice; [11]): > 324 mg/kg
ED50 Catatonia (female white mice; [12]): 12 mg/kg
ED50 Exploratory Loss Visual (female white mice; [12]): < 4 mg/kg
ED50 Ptosis (female white mice; [12]): 20 mg/kg
ED50 Reflexes Lift (female white mice; [12]): 20 mg/kg
ED50 Reflexes Pinna (female white mice; [12]): 12 mg/kg
